Converted amounts (≈) assume the structure as drawn.
Assays:
CYP2D6 = CYP2D6 (Homo sapiens, UniProt P10635); assay: Inhibition of CYP2D6 in human liver microsomes at 10 uM using dextromethorphan as substrate preincubated for 5 mins followed by NADPH addition and measured after 20 mins by LC-MS/MS analysis relative to control; type: ADME; details: probe dextromethorphan, time 25 min
[1] = molecular target: T1, Heat shock protein HSP90 (Homo sapiens) (UniProt P07900+P08238); assay: Inhibition of HSP90 in human HCT-116 cells assessed as reduction in Erk protein expression after 24 hrs by Western blot analysis; type: cell-based; details: dose 0.01-3 µM
MDA-MB-468 = assay: Antiproliferative activity against human MDA-MB-468 assessed as reduction in cell viability incubated for 72 hrs by MTT assay; type: functional, cell-based; details: MDA-MB-468, 72 h
[2] = molecular target: T1, Heat shock protein HSP90 (Homo sapiens); assay: Inhibition of HSP90 in human HCT-116 cells assessed as reduction in AKT protein expression after 24 hrs by Western blot analysis; type: cell-based; details: dose 0.01-3 µM
HCT-116 = assay: cells; details: Homo sapiens, HCT-116, 72 h
Description: Antiproliferative activity against human HCT-116 cells assessed as reduction in cell viability incubated for 72 hrs by MTT assay

[3] = Selectivity ratio of IC50 for inhibition of FITC-geldanamycin binding to N-terminal GRP94 (unknown origin) to IC50 for inhibition of FITC-geldanamycin binding to N-terminal HSP90alpha (unknown origin)
MV4-11 = assay: Antiproliferative activity against human MV4-11 assessed as reduction in cell viability incubated for 72 hrs by MTT assay; type: functional, cell-based; details: MV4-11, 72 h
[4] = molecular target: T1, Heat shock protein HSP90 (Homo sapiens); assay: Inhibition of HSP90 in human HCT-116 cells assessed as reduction in phosphorylated Erk after 24 hrs by Western blot analysis; type: cell-based; details: dose 0.01-3 µM
MDA-MB-231 = assay: Antiproliferative activity against human MDA-MB-231 assessed as reduction in cell viability incubated for 72 hrs by MTT assay; type: functional, cell-based; details: MDA-MB-231, 72 h
HepG2 = assay: Antiproliferative activity against human HepG2 assessed as reduction in cell viability incubated for 72 hrs by MTT assay; type: functional, cell-based; details: HepG2, 72 h
T47D = assay: Antiproliferative activity against human T47D assessed as reduction in cell viability incubated for 72 hrs by MTT assay; type: functional, cell-based
[5] = Permeability of the compound at pH 7.4 by PAMPA; type: ADME; details: read-out: permeability
[6] = molecular target: Heat shock protein HSP 90-alpha (Homo sapiens, UniProt P07900); assay: Displacement of FITC-geldanamycin from N-terminal HSP90alpha (unknown origin) after 30 mins by fluorescence polarization competitive binding assay
[7] = Half life in human liver microsomes at 1 uM preincubated for 5 mins followed by NADPH addition and measured up to 120 mins by LC-MS/MS analysis; type: ADME, Microsome; details: 2 h, time <=125 min
U2OS = assay: Antiproliferative activity against human U2OS assessed as reduction in cell viability incubated for 72 hrs by MTT assay; type: functional, cell-based
A549 = assay: Antiproliferative activity against human A549 assessed as reduction in cell viability incubated for 72 hrs by MTT assay; type: functional, cell-based; details: A549, 72 h
MKN-28 = assay: Antiproliferative activity against human MKN-28 assessed as reduction in cell viability incubated for 72 hrs by MTT assay; type: functional, cell-based; details: MKN-28, 72 h
L02 = assay: Cytotoxicity against human L02 cells assessed as reduction in cell viability incubated for 72 hrs by MTT assay; type: cell-based; details: L02, 72 h
[8] = Intrinsic aqueous solubility of the compound; type: physicochemical
MCF7 = assay: cells; details: Homo sapiens, MCF7, 72 h
[9] = molecular target: T1, Heat shock protein HSP90 (Homo sapiens); assay: Inhibition of HSP90 in human HCT-116 cells assessed as induction of HSP70 expression after 24 hrs by Western blot analysis; type: cell-based; details: dose 0.01-3 µM
[10] = Distribution coefficient, logD of compound at pH 7.4; type: physicochemical; details: octanol/water
K562 = assay: Antiproliferative activity against human K562 assessed as reduction in cell viability incubated for 72 hrs by MTT assay; type: functional, cell-based; details: K562, 72 h
[11] = Metabolic stability in human liver microsomes assessed as parent compound remaining at 1 uM preincubated for 5 mins followed by NADPH addition and measured up to 120 mins by LC-MS/MS analysis; type: ADME, Microsome; details: 2 h, time <=125 min
SK-BR-3 = assay: Antiproliferative activity against human SK-BR-3 assessed as reduction in cell viability incubated for 72 hrs by MTT assay; type: functional, cell-based; details: SK-BR-3, 72 h
[12] = Intrinsic clearance in human liver microsomes at 1 uM preincubated for 5 mins followed by NADPH addition and measured up to 120 mins by LC-MS/MS analysis; type: ADME, Microsome; details: 2 h, time <=125 min
Endoplasmin = Endoplasmin (Homo sapiens, UniProt P14625); assay: Displacement of FITC-geldanamycin from N-terminal GRP94 (unknown origin) after 30 mins by fluorescence polarization competitive binding assay
BT-474 = assay: Antiproliferative activity against human BT-474 assessed as reduction in cell viability incubated for 72 hrs by MTT assay; type: functional, cell-based; details: BT-474, 72 h
[13] = Tmax in rat at 50 mg/kg, po measured upto 24 hrs by LC-MS/MS analysis; type: ADME, organism-based; details: in vivo
[14] = Apparent volume of distribution in rat at 10 mg/kg, iv measured upto 24 hrs by LC-MS/MS analysis; type: ADME, organism-based; details: in vivo, read-out: Vz
[15] = Apparent clearance during terminal phase in rat at 10 mg/kg, iv measured upto 24 hrs by LC-MS/MS analysis; type: ADME, organism-based; details: in vivo
[16] = Oral bioavailability in rat at 50 mg/kg measured upto 24 hrs by LC-MS/MS analysis; type: ADME, organism-based; details: in vivo
[17] = AUC (0 to t) in rat at 50 mg/kg, po measured upto 24 hrs by LC-MS/MS analysis; type: ADME, organism-based; parameters: route oral, dose 50 mg/kg, time <=24; details: in vivo
[18] = Cmax in rat at 50 mg/kg, po measured upto 24 hrs by LC-MS/MS analysis; type: ADME, organism-based; parameters: route oral, dose 50 mg/kg, time <=24; details: in vivo
[19] = Half-life in rat at 50 mg/kg, po measured upto 24 hrs by LC-MS/MS analysis; type: ADME, organism-based; details: in vivo
[20] = Half-life in rat at 10 mg/kg, iv measured upto 24 hrs by LC-MS/MS analysis; type: ADME, organism-based; details: in vivo
[21] = Apparent clearance during terminal phase in rat at 50 mg/kg, po measured upto 24 hrs by LC-MS/MS analysis; type: ADME, organism-based; details: in vivo, read-out: CLz/F (converted)
[22] = AUC (0 to t) in rat at 10 mg/kg, iv measured upto 24 hrs by LC-MS/MS analysis; type: ADME, organism-based; parameters: route intravenous, dose 10 mg/kg, time <=24; details: in vivo
[23] = Apparent volume of distribution in rat at 50 mg/kg, po measured upto 24 hrs by LC-MS/MS analysis; type: ADME, organism-based; details: in vivo
CYP3A4 = CYP3A4 (Homo sapiens, UniProt P08684); assay: Inhibition of CYP3A4 in human liver microsomes at 10 uM using midazolam as substrate preincubated for 5 mins followed by NADPH addition and measured after 20 mins by LC-MS/MS analysis relative to control; type: ADME; details: probe midazolam, time 25 min
CYP1A2 = CYP1A2 (Homo sapiens, UniProt P05177); assay: Inhibition of CYP1A2 in human liver microsomes at 10 uM using phenacetin as substrate preincubated for 5 mins followed by NADPH addition and measured after 20 mins by LC-MS/MS analysis relative to control; type: ADME; details: probe phenacetin, time 25 min
Chain of CYP1A2 (P05177 whole entry): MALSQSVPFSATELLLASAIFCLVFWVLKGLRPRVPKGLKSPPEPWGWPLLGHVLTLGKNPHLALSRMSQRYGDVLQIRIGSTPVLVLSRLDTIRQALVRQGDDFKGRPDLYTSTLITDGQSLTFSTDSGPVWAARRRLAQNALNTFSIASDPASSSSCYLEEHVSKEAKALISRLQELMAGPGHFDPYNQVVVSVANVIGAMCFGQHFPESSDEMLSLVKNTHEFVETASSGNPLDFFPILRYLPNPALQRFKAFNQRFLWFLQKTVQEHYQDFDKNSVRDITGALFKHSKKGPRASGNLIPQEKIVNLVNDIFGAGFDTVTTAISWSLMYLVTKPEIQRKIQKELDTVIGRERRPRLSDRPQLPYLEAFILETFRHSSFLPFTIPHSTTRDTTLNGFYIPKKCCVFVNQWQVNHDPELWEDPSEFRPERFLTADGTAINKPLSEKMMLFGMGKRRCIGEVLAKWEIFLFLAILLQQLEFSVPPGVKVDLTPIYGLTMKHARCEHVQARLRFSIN

Chain of Endoplasmin (P14625 whole entry): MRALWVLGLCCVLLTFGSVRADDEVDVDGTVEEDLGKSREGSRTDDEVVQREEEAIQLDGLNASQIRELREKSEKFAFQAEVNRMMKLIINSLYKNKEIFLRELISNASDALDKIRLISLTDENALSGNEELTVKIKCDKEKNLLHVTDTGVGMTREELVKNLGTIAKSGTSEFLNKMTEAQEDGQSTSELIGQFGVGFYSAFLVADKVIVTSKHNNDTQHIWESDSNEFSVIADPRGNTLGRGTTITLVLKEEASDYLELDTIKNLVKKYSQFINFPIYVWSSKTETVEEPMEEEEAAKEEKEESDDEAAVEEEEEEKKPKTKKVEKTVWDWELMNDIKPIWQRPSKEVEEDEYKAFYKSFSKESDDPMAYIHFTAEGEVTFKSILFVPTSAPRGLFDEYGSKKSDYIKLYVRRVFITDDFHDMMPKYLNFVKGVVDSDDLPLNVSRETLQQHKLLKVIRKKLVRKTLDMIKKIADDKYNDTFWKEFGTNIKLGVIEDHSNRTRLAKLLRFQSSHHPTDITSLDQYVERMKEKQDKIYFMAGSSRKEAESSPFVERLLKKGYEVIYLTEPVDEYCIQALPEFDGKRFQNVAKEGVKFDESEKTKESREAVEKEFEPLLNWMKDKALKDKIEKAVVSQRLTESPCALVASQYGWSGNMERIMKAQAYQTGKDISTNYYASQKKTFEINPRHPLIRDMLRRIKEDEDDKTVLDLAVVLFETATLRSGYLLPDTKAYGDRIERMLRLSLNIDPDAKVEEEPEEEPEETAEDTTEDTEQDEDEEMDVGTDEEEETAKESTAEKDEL
Chain of CYP3A4 (P08684 whole entry): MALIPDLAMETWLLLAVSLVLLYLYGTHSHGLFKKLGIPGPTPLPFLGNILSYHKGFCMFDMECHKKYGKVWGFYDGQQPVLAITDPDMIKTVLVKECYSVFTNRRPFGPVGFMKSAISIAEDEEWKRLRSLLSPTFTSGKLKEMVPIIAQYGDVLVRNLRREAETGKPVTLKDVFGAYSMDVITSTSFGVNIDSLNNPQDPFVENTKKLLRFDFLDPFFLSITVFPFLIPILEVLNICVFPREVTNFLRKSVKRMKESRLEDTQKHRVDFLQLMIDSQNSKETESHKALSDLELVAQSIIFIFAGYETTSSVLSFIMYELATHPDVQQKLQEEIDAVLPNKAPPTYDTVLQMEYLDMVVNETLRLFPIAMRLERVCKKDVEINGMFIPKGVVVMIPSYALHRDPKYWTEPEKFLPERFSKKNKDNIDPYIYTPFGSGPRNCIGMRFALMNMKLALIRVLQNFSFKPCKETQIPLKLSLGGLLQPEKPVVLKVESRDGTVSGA
Chain of CYP2D6 (P10635 whole entry): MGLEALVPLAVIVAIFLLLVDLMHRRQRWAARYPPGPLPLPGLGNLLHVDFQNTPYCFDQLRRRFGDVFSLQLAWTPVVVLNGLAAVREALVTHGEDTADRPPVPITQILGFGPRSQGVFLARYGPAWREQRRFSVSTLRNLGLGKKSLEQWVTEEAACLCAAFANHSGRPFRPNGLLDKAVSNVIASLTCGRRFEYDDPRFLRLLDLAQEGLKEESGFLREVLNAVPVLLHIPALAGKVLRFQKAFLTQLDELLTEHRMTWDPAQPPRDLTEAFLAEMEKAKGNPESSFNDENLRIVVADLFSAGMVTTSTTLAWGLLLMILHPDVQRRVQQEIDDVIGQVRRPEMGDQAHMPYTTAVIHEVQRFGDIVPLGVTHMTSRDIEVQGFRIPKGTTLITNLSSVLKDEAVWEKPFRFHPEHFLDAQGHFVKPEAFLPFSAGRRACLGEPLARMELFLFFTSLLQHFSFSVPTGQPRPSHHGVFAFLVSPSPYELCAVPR

## C=C[C@H]1C[N@@]2CC[C@H]1C[C@@H]2[C@@H](O)c1ccnc2ccc(OC)cc12 [QUINIDINE]
CYP2D6
  inhibition at 20 min, 10 µM: 89%

## CCCOc1nc(OCCOC)nc2c1CN(C(=O)c1cc(C(C)C)c(O)cc1O)CC2
[1]
  inhibition: Dose-dependent effect
MDA-MB-468
  IC50: 139 nM
[2]
  inhibition: Dose-dependent effect
HCT-116
  IC50: 120 nM
[3]
  Ratio IC50: 25.8
MV4-11
  IC50: 18 nM
[4]
  inhibition: Dose-dependent effect
MDA-MB-231
  IC50: 122 nM
HepG2
  IC50: 222 nM
T47D
  IC50: 178 nM
[5]
  Papp: 87.7 ×10⁻⁶ cm/s
[6]
  IC50: 36 nM
[7]
  t1/2: 1.15 h
U2OS
  IC50: 171 nM
A549
  IC50: 60 nM
MKN-28
  IC50: 407 nM
L02
  IC50: 30900 nM
[8]
  solubility: 73.6 µg/mL (≈ 165 µM)
MCF7
  IC50: 40 nM
[9]
  inhibition: Dose-dependent effect
[10]
  logD: 3.59
K562
  IC50: 150 nM
[11]
  Stabilty: 59.5%
SK-BR-3
  IC50: 220 nM
[12]
  CLint: 13.7 mL/min/kg
Endoplasmin
  IC50: 929 nM
BT-474
  IC50: 118 nM

## COCCOc1ncc2c(n1)CCN(C(=O)c1cc(C(C)C)c(O)cc1O)C2
[13]
  Tmax: 0.5 h
[1]
  inhibition: Dose-dependent effect
MDA-MB-468
  IC50: 172 nM
[14]
  Vd: 86.6 L/kg
[2]
  inhibition: Dose-dependent effect
HCT-116
  IC50: 170 nM
[3]
  Ratio IC50: 10.4
MV4-11
  IC50: 31 nM
[15]
  CLz/F: 235.3 mL/min/kg
[4]
  inhibition: Dose-dependent effect
MDA-MB-231
  IC50: 129 nM
[16]
  bioavailability: 7%
HepG2
  IC50: 119 nM
T47D
  IC50: 183 nM
[5]
  Papp: 55.5 ×10⁻⁶ cm/s
[17]
  AUC(0-t) at 24 h: 265 ng·h/mL
[6]
  IC50: 19 nM
[7]
  t1/2: 3.23 h
U2OS
  IC50: 107 nM
[18]
  Cmax: 40.7 ng/mL
A549
  IC50: 168 nM
MKN-28
  IC50: 325 nM
L02
  IC50: 27600 nM
[8]
  solubility: 140 µg/mL (≈ 361 µM)
MCF7
  IC50: 120 nM
[9]
  inhibition: Dose-dependent effect
[19]
  half-life: 7.4 h
[10]
  logD: 2.14
K562
  IC50: 109 nM
[20]
  half-life: 4.16 h
[21]
  CL/F: 3320 mL/min/kg
[22]
  AUC(0-t) at 24 h: 757 ng·h/mL
[11]
  Stabilty: 81.5%
SK-BR-3
  IC50: 175 nM
[23]
  Vz: 2072.05 L/kg
[12]
  CLint: 4.88 mL/min/kg
Endoplasmin
  IC50: 198 nM
BT-474
  IC50: 144 nM

## CCN(CC)CCOc1ncc2c(n1)CCN(C(=O)c1cc(C(C)C)c(O)cc1O)C2
HCT-116
  IC50: 890 nM
[3]
  Ratio IC50: 6.8
[5]
  Papp: 25.7 ×10⁻⁶ cm/s
[6]
  IC50: 32 nM
[8]
  solubility: 151 µg/mL (≈ 353 µM)
MCF7
  IC50: 2900 nM
[10]
  logD: 1.17
Endoplasmin
  IC50: 217 nM

## CCOc1nc(OCCOC)nc2c1CN(C(=O)c1cc(C(C)C)c(O)cc1O)CC2
HCT-116
  IC50: 320 nM
[3]
  Ratio IC50: 23.4
[5]
  Papp: 77.3 ×10⁻⁶ cm/s
[6]
  IC50: 26 nM
[8]
  solubility: 86.1 µg/mL (≈ 200 µM)
MCF7
  IC50: 180 nM
[10]
  logD: 2.74
Endoplasmin
  IC50: 608 nM

## CC(=O)N1CCN(c2ccc(OCC3COC(Cn4ccnc4)(c4ccc(Cl)cc4Cl)O3)cc2)CC1 (stereo unspecified) [KETOCONAZOLE]
CYP3A4
  inhibition at 20 min, 10 µM: 72%

## O=c1cc(-c2ccccc2)oc2c1ccc1ccccc12 [ALPHA-NAPHTHOFLAVONE]
CYP1A2
  inhibition at 20 min, 10 µM: 76%

## CCN(CC)c1nc(OCCOC)nc2c1CN(C(=O)c1cc(C(C)C)c(O)cc1O)CC2
HCT-116
  IC50: 3570 nM
[3]
  Ratio IC50: 10.8
[5]
  Papp: 107 ×10⁻⁶ cm/s
[6]
  IC50: 102 nM
[8]
  solubility: 95.9 µg/mL (≈ 209 µM)
MCF7
  IC50: 2890 nM
[10]
  logD: 3.08
Endoplasmin
  IC50: 1100 nM

## CNc1nc(OCCOC)nc2c1CN(C(=O)c1cc(C(C)C)c(O)cc1O)CC2
HCT-116
  IC50: 270 nM
[3]
  Ratio IC50: 11.5
[5]
  Papp: 57.5 ×10⁻⁶ cm/s
[6]
  IC50: 17 nM
[8]
  solubility: 178 µg/mL (≈ 427 µM)
MCF7
  IC50: 290 nM
[10]
  logD: 2.21
Endoplasmin
  IC50: 196 nM

## COCCOc1nc2c(c(N(C)C)n1)CN(C(=O)c1cc(C(C)C)c(O)cc1O)CC2
HCT-116
  IC50: 260 nM
[3]
  Ratio IC50: 12.2
[5]
  Papp: 83 ×10⁻⁶ cm/s
[6]
  IC50: 16 nM
[8]
  solubility: 153 µg/mL (≈ 355 µM)
MCF7
  IC50: 330 nM
[10]
  logD: 2.35
Endoplasmin
  IC50: 195 nM

## CCOc1ncc2c(n1)CCN(C(=O)c1cc(C(C)C)c(O)cc1O)C2
HCT-116
  IC50: 760 nM
[3]
  Ratio IC50: 10
[5]
  Papp: 72.4 ×10⁻⁶ cm/s
[6]
  IC50: 56 nM
[8]
  solubility: 66 µg/mL (≈ 185 µM)
MCF7
  IC50: 620 nM
[10]
  logD: 2.95
Endoplasmin
  IC50: 561 nM
